Measurements taken from PMC11606603, “The membrane domains of mammalian adenylyl cyclases are lipid receptors” (eLife, 2024).
Values joined by “and” are separate entries in the source; they are usually repeats but may differ in a detail not shown here. Identical values can stand only once.

Molecular target: T1, mAC3 (Homo sapiens, UniProt O60266)
T1 construct: Human mAC genes were from GenScript and fitted with a C-terminal FLAG-tag; FLAG (C); made in house; host or cells: HEK293, permanently transfected; membrane preparation
T1 sequence (O60266 whole entry): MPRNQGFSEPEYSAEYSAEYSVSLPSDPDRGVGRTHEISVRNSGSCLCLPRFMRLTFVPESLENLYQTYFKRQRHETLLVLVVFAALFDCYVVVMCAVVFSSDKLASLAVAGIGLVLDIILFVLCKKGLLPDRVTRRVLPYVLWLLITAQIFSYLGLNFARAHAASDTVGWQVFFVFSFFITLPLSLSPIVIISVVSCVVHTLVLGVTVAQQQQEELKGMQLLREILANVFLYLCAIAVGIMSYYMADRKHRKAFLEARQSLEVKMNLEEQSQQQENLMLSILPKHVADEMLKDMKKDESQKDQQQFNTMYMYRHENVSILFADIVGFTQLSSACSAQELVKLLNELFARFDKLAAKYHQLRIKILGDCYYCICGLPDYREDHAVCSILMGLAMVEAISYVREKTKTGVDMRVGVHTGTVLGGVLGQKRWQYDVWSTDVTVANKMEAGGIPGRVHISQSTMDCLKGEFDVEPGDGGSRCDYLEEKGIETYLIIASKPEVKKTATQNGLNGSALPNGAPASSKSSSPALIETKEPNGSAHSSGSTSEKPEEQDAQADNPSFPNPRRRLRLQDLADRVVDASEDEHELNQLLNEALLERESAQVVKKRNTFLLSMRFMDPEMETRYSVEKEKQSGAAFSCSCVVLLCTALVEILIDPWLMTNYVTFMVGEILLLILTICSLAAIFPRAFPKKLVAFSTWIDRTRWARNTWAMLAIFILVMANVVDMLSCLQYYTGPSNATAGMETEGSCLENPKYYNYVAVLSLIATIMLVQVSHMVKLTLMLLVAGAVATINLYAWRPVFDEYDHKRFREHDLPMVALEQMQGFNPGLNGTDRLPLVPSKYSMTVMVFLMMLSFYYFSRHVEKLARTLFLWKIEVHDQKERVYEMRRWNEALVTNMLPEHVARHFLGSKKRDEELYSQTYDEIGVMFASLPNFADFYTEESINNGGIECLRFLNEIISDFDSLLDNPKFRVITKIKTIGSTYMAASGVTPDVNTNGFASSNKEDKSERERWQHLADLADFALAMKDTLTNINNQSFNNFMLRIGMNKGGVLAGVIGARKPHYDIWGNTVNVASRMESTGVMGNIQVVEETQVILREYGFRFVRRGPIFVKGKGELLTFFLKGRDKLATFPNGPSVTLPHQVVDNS
T1 sequence (P63092 whole entry Q227L partner): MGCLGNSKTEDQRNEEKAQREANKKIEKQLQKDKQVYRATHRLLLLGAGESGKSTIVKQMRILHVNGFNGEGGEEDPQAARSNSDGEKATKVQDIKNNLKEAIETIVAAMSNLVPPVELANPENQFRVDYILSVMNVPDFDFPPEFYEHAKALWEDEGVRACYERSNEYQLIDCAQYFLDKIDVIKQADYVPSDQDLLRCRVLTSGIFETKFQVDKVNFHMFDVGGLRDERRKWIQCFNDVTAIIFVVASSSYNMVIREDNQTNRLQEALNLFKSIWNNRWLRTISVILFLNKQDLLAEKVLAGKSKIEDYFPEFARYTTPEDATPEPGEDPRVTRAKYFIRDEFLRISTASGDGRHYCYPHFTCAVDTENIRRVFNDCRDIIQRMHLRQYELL
Assay: AC assay, Gsα-stimulated mAC3 in membranes from transfected HEK293 cells
Format: biochemical
Set-up: ATP/V (mAC3 + 20µM Oleic acid): unit not given here
Conditions: for ATP/V (mAC3 + 20µM Oleic acid): Hanes-Woolf plot; for mAC3 activity + 20µM Oleic acid: Michaelis-Menten; for mAC3 activity [%] (100% = 300nM Gsα stimulation): individual experiments
Outline: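 EC50 and IC50 values come from cAMP production, read with a Cisbio cAMP kit and converted via a standard curve. Assay mix held 1 mM ATP, 2 mM MgCl2, 3 mM creatine phosphate and 60 μg/ml creatine kinase in 50 mM MOPS pH 7.5, using transfected HEK293 membranes.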

CCCCCCCC/C=C\CCCCCCCC(=O)O [Oleic acid, Oleic ((9Z)-octadecenoic) acid] was tested, and the “time over which the action on mAC3 was linear” value (300 nM Gsα + 20 µM oleic acid, 37°C) was greater than 25 min, the “enhancement of cAMP formation, mAC3” value (20 µM oleic, over the Gsα concentration range tested) was “about 3.4 fold” and the “Effect of lipid on 300 nM Gsα-stimulated mAC3” value (20 µM, in words) was “threefold”. The “activity, mAC3 + 20µM Oleic acid” value (Gsα 100 nM) was 0.209 cAMP nmol/mg/min and 0.110 cAMP nmol/mg/min and 0.112 cAMP nmol/mg/min, the “activity, mAC3 + 20µM Oleic acid” value (Gsα 300 nM) was 0.432 cAMP nmol/mg/min and 0.605 cAMP nmol/mg/min and 0.596 cAMP nmol/mg/min and the “activity, mAC3 + 20µM Oleic acid” value (Gsα 450 nM) was 0.779 cAMP nmol/mg/min and 1.182 cAMP nmol/mg/min and 0.727 cAMP nmol/mg/min. The “activity, mAC3 + 20µM Oleic acid” value (Gsα 600 nM) was 0.825 cAMP nmol/mg/min and 1.078 cAMP nmol/mg/min and 1.302 cAMP nmol/mg/min, the “activity, mAC3 + 20µM Oleic acid” value (Gsα 800 nM) was 1.075 cAMP nmol/mg/min and 1.164 cAMP nmol/mg/min and 1.303 cAMP nmol/mg/min and the “activity, mAC3 + 20µM Oleic acid” value (Gsα 1000 nM) was 1.029 cAMP nmol/mg/min and 1.444 cAMP nmol/mg/min and 1.731 cAMP nmol/mg/min. The “ATP/V (mAC3 + 20µM Oleic acid)” value (ATP 50 µM) was 208.8, the “ATP/V (mAC3 + 20µM Oleic acid)” value (ATP 75 µM) was 204.9 and the “ATP/V (mAC3 + 20µM Oleic acid)” value (ATP 250 µM) was 392.9. The “ATP/V (mAC3 + 20µM Oleic acid)” value (ATP 500 µM) was 636.9, the “ATP/V (mAC3 + 20µM Oleic acid)” value (ATP 750 µM) was 814.6 and the “ATP/V (mAC3 + 20µM Oleic acid)” value (ATP 1000 µM) was 941.6. For the same molecule, the “mAC3 activity + 20µM Oleic acid” value (ATP 50 µM) was 0.232 nmol cAMP/mg/min and 0.247 nmol cAMP/mg/min, the “mAC3 activity + 20µM Oleic acid” value (ATP 75 µM) was 0.434 nmol cAMP/mg/min and 0.298 nmol cAMP/mg/min and the “mAC3 activity + 20µM Oleic acid” value (ATP 250 µM) was 0.713 nmol cAMP/mg/min and 0.609 nmol cAMP/mg/min and 0.587 nmol cAMP/mg/min. For the same molecule, the “mAC3 activity + 20µM Oleic acid” value (ATP 500 µM) was 0.786 nmol cAMP/mg/min and 0.782 nmol cAMP/mg/min and 0.787 nmol cAMP/mg/min, the “mAC3 activity + 20µM Oleic acid” value (ATP 750 µM) was 0.817 nmol cAMP/mg/min and 0.753 nmol cAMP/mg/min and 1.192 nmol cAMP/mg/min and the “mAC3 activity + 20µM Oleic acid” value (ATP 1000 µM) was 0.944 nmol cAMP/mg/min and 1.156 nmol cAMP/mg/min and 1.086 nmol cAMP/mg/min. The EC50 (enhancement of 300 nM Gsα-stimulated activity) was 10.4 µM, the “mAC3 activity [%] (100% = 300nM Gsα stimulation)” value (shortened to “mAC3 activity [%]”) (fatty acid 0.5 µM) was 100% and the “mAC3 activity [%]” value (fatty acid 1 µM) was 112% and 105% and 91% and 64% and 97% and 107% and 78% and 95% and 111% and 139% and 103% and 106% and 87%. The “mAC3 activity [%]” value (fatty acid 3 µM) was 98% and 158% and 97% and 183% and 141% and 160% and 142% and 105% and 145% and 150%, the “mAC3 activity [%]” value (fatty acid 6 µM) was 117% and 105% and 165% and 187% and 143% and 169% (2×) and 166% and 97% and the “mAC3 activity [%]” value (fatty acid 10 µM) was 271% and 106% and 156% and 151% and 142% and 280% and 178% and 252% and 181% and 191% and 139% and 175% and 284% and 260% and 266% and 166%. For the same molecule, the “mAC3 activity [%]” value (fatty acid 20 µM) was 341% and 348% and 429% and 323% and 430% and 264% and 322% and 395% and 181% and 452% and 464% and 265% (2×).
